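Five compound concentrations were applied to cells in 96-well plates for 48 hours; endpoints were derived by simple linear interpolation of the resulting dose-response curve. Definition used: TGI = concentration required for complete inhibition of growth.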
Key:
Assay in all cases: NCI-60 cell line screen, 48 h
MALME-3M melanoma = test system: MALME-3M melanoma
HT29 colon = test system: HT29 colon
MDA-MB-231 breast = test system: MDA-MB-231 breast
OVCAR-4 ovarian = test system: OVCAR-4 ovarian
MDA-MB-435 = test system: MDA-MB-435
MDA-N = test system: MDA-N
NCI/ADR-RES ovarian = test system: NCI/ADR-RES ovarian
HS 578T breast = test system: HS 578T breast
BT-549 breast = test system: BT-549 breast
OVCAR-8 ovarian = test system: OVCAR-8 ovarian
IGROV1 ovarian = test system: IGROV1 ovarian

## COc1ccc(-c2c(C#N)c(S)n(NS(=O)(=O)c3ccccc3)c(=O)c2C#N)cc1
MALME-3M melanoma
  TGI: > 100 µM
HT29 colon
  TGI: > 100 µM
MDA-MB-231 breast
  TGI: > 100 µM
OVCAR-4 ovarian
  TGI: > 100 µM
MDA-MB-435
  TGI: > 100 µM
MDA-N
  TGI: > 100 µM
NCI/ADR-RES ovarian
  TGI: > 100 µM
HS 578T breast
  TGI: > 100 µM
BT-549 breast
  TGI: 46 µM
OVCAR-8 ovarian
  TGI: > 100 µM
IGROV1 ovarian
  TGI: > 100 µM

## CCOC(=O)/C=C(/C)Nc1nc2c(c(C(=O)OC)c1C#N)CCCC2
MALME-3M melanoma
  TGI: > 100 µM
HT29 colon
  TGI: > 100 µM
MDA-MB-231 breast
  TGI: > 100 µM
OVCAR-4 ovarian
  TGI: > 100 µM
MDA-MB-435
  TGI: > 100 µM
MDA-N
  TGI: > 100 µM
NCI/ADR-RES ovarian
  TGI: > 100 µM
HS 578T breast
  TGI: > 100 µM
BT-549 breast
  TGI: > 100 µM
OVCAR-8 ovarian
  TGI: > 100 µM
IGROV1 ovarian
  TGI: > 100 µM

## C=C1C[C@H](O)[C@H](Br)C(C)(C)C12CCC(C)(Cl)C(Br)C2 (some centres undefined)
MALME-3M melanoma
  TGI: 16.6 µM
HT29 colon
  TGI: 0.895 µM
MDA-MB-231 breast
  TGI: 11.3 µM
OVCAR-4 ovarian
  TGI: 7.95 µM
MDA-MB-435
  TGI: 11.7 µM
MDA-N
  TGI: 10.8 µM
NCI/ADR-RES ovarian
  TGI: 20.7 µM
HS 578T breast
  TGI: 23.6 µM
BT-549 breast
  TGI: 18.5 µM
OVCAR-8 ovarian
  TGI: 15.1 µM
IGROV1 ovarian
  TGI: 18.8 µM

## O=C(c1ccc(Cl)cc1)N(C(=S)OCCOc1ccccc1)c1ccccc1
MALME-3M melanoma
  TGI: 70.7 µM
HT29 colon
  TGI: 35.6 µM
MDA-MB-231 breast
  TGI: 75.6 µM
OVCAR-4 ovarian
  TGI: 40.8 µM
MDA-MB-435
  TGI: 30.7 µM
MDA-N
  TGI: 33.3 µM
NCI/ADR-RES ovarian
  TGI: 76.3 µM
HS 578T breast
  TGI: > 100 µM
BT-549 breast
  TGI: 52.3 µM
OVCAR-8 ovarian
  TGI: 48.3 µM
IGROV1 ovarian
  TGI: 38.1 µM

## O=C1CC(=O)NC(=NNS(=O)(=O)c2ccc(Cl)cc2)N1
MALME-3M melanoma
  TGI: > 100 µM
HT29 colon
  TGI: > 100 µM
MDA-MB-231 breast
  TGI: > 100 µM
OVCAR-4 ovarian
  TGI: > 100 µM
MDA-MB-435
  TGI: > 100 µM
MDA-N
  TGI: > 100 µM
NCI/ADR-RES ovarian
  TGI: > 100 µM
HS 578T breast
  TGI: > 100 µM
BT-549 breast
  TGI: > 100 µM
OVCAR-8 ovarian
  TGI: > 100 µM
IGROV1 ovarian
  TGI: > 100 µM

## O=C(c1cc2c(c3ccccc13)NC1(CCCCC1)N=C2C(F)(F)F)C(F)(F)F
MALME-3M melanoma
  TGI: 17.4 µM
HT29 colon
  TGI: 13.4 µM
MDA-MB-231 breast
  TGI: 9.83 µM
OVCAR-4 ovarian
  TGI: 14.9 µM
MDA-MB-435
  TGI: 12.5 µM
MDA-N
  TGI: 14.2 µM
NCI/ADR-RES ovarian
  TGI: 17 µM
HS 578T breast
  TGI: 29.3 µM
BT-549 breast
  TGI: 15.8 µM
OVCAR-8 ovarian
  TGI: 15.8 µM
IGROV1 ovarian
  TGI: 17.3 µM

## CNc1nc(C(N)=O)c(N)s1
MALME-3M melanoma
  TGI: > 100 µM
HT29 colon
  TGI: > 100 µM
MDA-MB-231 breast
  TGI: > 100 µM
OVCAR-4 ovarian
  TGI: > 100 µM
MDA-MB-435
  TGI: > 100 µM
MDA-N
  TGI: > 100 µM
NCI/ADR-RES ovarian
  TGI: > 100 µM
HS 578T breast
  TGI: > 100 µM
BT-549 breast
  TGI: > 100 µM
OVCAR-8 ovarian
  TGI: > 100 µM
IGROV1 ovarian
  TGI: > 100 µM

## CCOC(=O)NN(C(=O)OCC)c1c(C)cc(C)cc1C
MALME-3M melanoma
  TGI: > 100 µM
HT29 colon
  TGI: > 100 µM
MDA-MB-231 breast
  TGI: > 100 µM
OVCAR-4 ovarian
  TGI: > 100 µM
MDA-MB-435
  TGI: > 100 µM
MDA-N
  TGI: > 100 µM
NCI/ADR-RES ovarian
  TGI: > 100 µM
HS 578T breast
  TGI: > 100 µM
BT-549 breast
  TGI: > 100 µM
OVCAR-8 ovarian
  TGI: > 100 µM
IGROV1 ovarian
  TGI: > 100 µM

## CC(C)Oc1c(-c2ccc(F)cc2)c(O)c2c3c1oc(=O)n3C=CC2C (centres undefined)
MALME-3M melanoma
  TGI: 91.1 µM
HT29 colon
  TGI: 30.2 µM
MDA-MB-231 breast
  TGI: 28.7 µM
OVCAR-4 ovarian
  TGI: 23.3 µM
MDA-MB-435
  TGI: 52.9 µM
MDA-N
  TGI: 27.1 µM
NCI/ADR-RES ovarian
  TGI: 29.3 µM
HS 578T breast
  TGI: 52.8 µM
BT-549 breast
  TGI: 28 µM
OVCAR-8 ovarian
  TGI: 30.6 µM
IGROV1 ovarian
  TGI: 29.2 µM

Reference: PubChem BioAssay (NCI)
